Patent US5869476A, “Pyrimidinone derivatives” (Boryung Pharmaceutical Co., Ltd., priority 1994, dated 1999)
Where two headings read alike, the source gives them in different places.

Target: T1, angiotensin II receptor (Oryctolagus cuniculus, UniProt P34976)
T1 construct: The aorta was cut into 3~4 mm to form ring samples; from tissue; host or cells: isolated aorta rings of New Zealand White rabbits
T1 sequence (P34976 1-359): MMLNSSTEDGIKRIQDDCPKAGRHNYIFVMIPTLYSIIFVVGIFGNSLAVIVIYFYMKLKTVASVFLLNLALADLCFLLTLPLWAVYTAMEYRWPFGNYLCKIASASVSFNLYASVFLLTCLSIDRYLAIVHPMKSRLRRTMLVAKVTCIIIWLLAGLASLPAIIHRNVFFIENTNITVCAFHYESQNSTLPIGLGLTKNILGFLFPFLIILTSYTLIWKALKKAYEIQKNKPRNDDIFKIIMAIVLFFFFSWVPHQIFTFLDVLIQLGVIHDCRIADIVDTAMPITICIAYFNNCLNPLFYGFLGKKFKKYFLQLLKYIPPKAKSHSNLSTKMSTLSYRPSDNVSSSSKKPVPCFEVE
Experiment: inhibition of angiotensin II induced contraction of isolated rabbit aorta rings
Type: cell-based, New Zealand White rabbit
Conditions: test compound incubated 20 minutes
Procedure: The antagonistic activity of the representative compounds of the invention was evaluated using the methodology describe below.
From New Zealand White rabbits (male or female, 2~2.5 kg), aorta was isolated, and fat and connected tissue were removed therefrom. The aorta was cut into 3~4 mm to form ring samples. The aorta sample was suspended in 20 ml of organ bath (37° C.) containing modified Krebs-Henseleit solution saturated with 95% O2 /5% CO2 (pH 7.4).
The aorta preparation was exposed consecutively to 2 g of tensile strength for 90 minutes intermittently washing the sample with 30 minutes interval and then to 30 mM of KCl to observe contraction response. After washing more than three times, the aorta preparation was again allowed to contract three times for stabilization by adding Angiotensin II ([…]) thereto with 30 minutes interval. The third contraction response to Angiotensin II was considered as control.
10 minutes after the third contraction, the test compound was administered to the aorta preparation, which was incubated for 20 minutes.
Comparing angiotensin II contraction curve obtained from the above inhibition test with that of the control, IC50 (concentration being required to inhibit angiotensin II induced contraction by 50%) was determined for each test compound(Table 1).

[1] = 37° C., pH 7.4, read-out: IC50 (concentration being required to inhibit angiotensin II induced contraction by 50%)

Question: How did the IC50 [1] turn out when `CCCCc1nc(C)c(CCCC(=O)OCC)c(=O)n1Cc1ccc(-c2ccccc2-c2nnn[nH]2)cc1` [Compound 29, 2-n-butyl-5-(3'-ethoxycarbonylpropyl)-6-methyl-3-[[2'-(1H-tetrazol-5-yl)biphenyl-4-yl]methyl]-pyrimidin-4-(3H)-one] was run?
Answer: The IC50 was 17 nM.

Question: With `CCCCc1nc(C)c(CCCC(=O)O)c(=O)n1Cc1ccc(-c2ccccc2-c2nnn[nH]2)cc1` [Compound 30, 2-n-butyl-5-(3'-carboxypropyl)-6-methyl-3-[[2'-(1H-tetrazol-5-yl)biphenyl-4-yl]methyl]-pyrimidin-4-(3H)-one] as the molecule, how does the IC50 [1] read?
Answer: Its IC50 is 7.26 nM.

Question: Which IC50 [1] does the source give for `CCCCc1nc(=O)c(CCCC(=O)O)c(C)n1Cc1ccc(-c2ccccc2-c2nn[nH]n2)cc1` [Compound 31, 2-n-butyl-5-(3'-carboxypropyl)-6-methyl-1-[[2'-(1H-tetrazol-5-yl)biphenyl-4-yl]methyl]-pyrimidin-4-(1H)-one] here?
Answer: Its IC50 is 17 nM.

Question: How did the IC50 [1] turn out when `CCCCc1nc(C)c(CCCC(=O)N(CC)CC)c(=O)n1Cc1ccc(-c2ccccc2-c2nn[nH]n2)cc1` [Compound 32, 2-n-butyl-5-(3'-diethylaminocarbonylpropyl)-6-methyl-3-[[2'-(1H-tetrazol-5-yl)biphenyl-4-yl]methyl]-pyrimidin-4-(3H )-one] was run?
Answer: The IC50 was 2.95 nM.

Question: `CCCCc1nc(CC)c(CCC(=O)OCC)c(=O)n1Cc1ccc(-c2ccccc2-c2nn[nH]n2)cc1` [Compound 33, 2-n-butyl-5-(2'-ethoxycarbonylethyl)-6-ethyl-3-[[2'-(1H-tetrazol-5-yl)biphenyl-4-yl]methyl]-pyrimidin-4-(3H)-one] was tested. Which IC50 [1] did it give?
Answer: The IC50 was 11.2 nM.

Question: How did the IC50 [1] turn out when `CCCCc1nc(CC)c(CCC(=O)O)c(=O)n1Cc1ccc(-c2ccccc2-c2nn[nH]n2)cc1` [Compound 34, 2-n-butyl-5-(2'-carboxyethyl)-6-ethyl-3-[[2'-(1H-tetrazol-5-yl)-biphenyl-4-yl]methyl]-pyrimidin-4-(3H)-one] was run?
Answer: The IC50 was 4.17 nM.

Question: With `CCCCc1nc(=O)c(CCC(=O)O)c(CC)n1Cc1ccc(-c2ccccc2-c2nn[nH]n2)cc1` [Compound 35, 2-n-butyl-5-(2'-carboxyethyl)-6-ethyl-1-[[2'-(1H-tetrazol-5-yl)-biphenyl-4-yl]methyl]-pyrimidin-4-(1H)-one] as the molecule, how does the IC50 [1] read?
Answer: Its IC50 is 62 nM.

Question: For `CCCCc1nc(CCC)c(CCC(=O)OCC)c(=O)n1Cc1ccc(-c2ccccc2-c2nn[nH]n2)cc1` [Compound 36, 2-n-butyl-5-(2'-ethoxycarbonylethyl)-6-propyl-3-[[2'-(1H-tetrazol-5-yl)biphenyl-4-yl]methyl]-pyrimidin-4-(3H)-one], which IC50 [1] is on record?
Answer: Its IC50 is 44.5 nM.

Question: With `CCCCc1nc(=O)c(CCC(=O)O)c(CCC)n1Cc1ccc(-c2ccccc2-c2nn[nH]n2)cc1` [Compound 37, 2-n-butyl-5-(2'-carboxyethyl)-6-propyl-1-[[2'-(1H-tetrazol-5-yl)-biphenyl-4-yl]methyl]-pyrimidin-4-(1H)-one] as the molecule, how does the IC50 [1] read?
Answer: The IC50 was 115 nM.

Question: For `CCCCc1nc(C)c(CC(=O)OCC)c(=O)n1Cc1ccc(-c2ccccc2C(=O)O)cc1` [Compound 38, 2-n-butyl-5-ethoxycarbonylmethyl-6-methyl-3-(2'-carboxy-biphenyl-4-yl)methyl-pyrimidin-4-(3H)-one], which IC50 [1] is on record?
Answer: Its IC50 is 335 nM.

Question: `CCCCc1nc(C)c(CC(=O)O)c(=O)n1Cc1ccc(-c2ccccc2C(=O)O)cc1` [Compound 39, 2-n-butyl-5-carboxymethyl-6-methyl-3-(2'-carboxybiphenyl-4-yl)methyl-pyrimidin-4-(3H)-one] was tested. Which IC50 [1] did it give?
Answer: The IC50 was 36.1 nM.

Question: How did the IC50 [1] turn out when `CCCCc1nc(C)c(CC(=O)N2CCCC2)c(=O)n1Cc1ccc(-c2ccccc2-c2nnn[nH]2)cc1` [Compound 40, 2-n-butyl-5-pyrrolidinocarbonylmethyl-6-methyl-3-[[2'-(1H-tetrazol-5-yl)biphenyl-4-yl]methyl]-pyrimidin-4-(3H)-one] was run?
Answer: Its IC50 is 2.74 nM.

Question: With `CCCCc1nc(=O)c(CC(=O)N2CCCC2)c(C)n1Cc1ccc(-c2ccccc2-c2nn[nH]n2)cc1` [Compound 41, 2-n-butyl-5-pyrrolidinocarbonylmethyl-6-methyl-1-[[2'-(1H-tetrazol-5-yl)biphenyl-4-yl]methyl]-pyrimidin-4-(1H) -one] as the molecule, how does the IC50 [1] read?
Answer: Its IC50 is 119 nM.

Question: How did the IC50 [1] turn out when `CCCCc1nc(C)c(CC(=O)N2CCC[C@H]2C(=O)OC)c(=O)n1Cc1ccc(-c2ccccc2-c2nn[nH]n2)cc1` [Compound 42, 2-n-butyl-5-[(S)-2'-methoxycarbonylpyrrolidinocarbonylmethyl]-6-methyl-3-[[2'-(1H-tetrazol-5-yl)biphenyl-4-yl]methyl]-pyrimidin-4-(3H)-one] was run?
Answer: Its IC50 is 2.06 nM.

Question: Which IC50 [1] does the source give for `CCCCc1nc(C)c(CC(=O)N2CCC[C@H]2C(N)=O)c(=O)n1Cc1ccc(-c2ccccc2-c2nn[nH]n2)cc1` [Compound 43, 2-n-butyl-5-[(S)-2'-aminocarbonylpyrrolidinocarbonylmethyl]-6-methyl-3-[[2'-(1H-tetrazol-5-yl)biphenyl-4-yl]methyl]-pyrimidin-4-(3H)-one] here?
Answer: Its IC50 is 2.08 nM.

Question: With `CCCCc1nc(C)c(CC(=O)N2CC=CC2)c(=O)n1Cc1ccc(-c2ccccc2-c2nn[nH]n2)cc1` [Compound 44, 2-n-butyl-5-(3'-pyrrolinocarbonylmethyl)-6-methyl-3-[[2'-(1H-tetrazol-5-yl)biphenyl-4-yl]methyl]-pyrimidin-4-(3H)-one] as the molecule, how does the IC50 [1] read?
Answer: The IC50 was 2.04 nM.

Question: With `CCCCc1nc(C)c(CC(=O)N2CCCCC2)c(=O)n1Cc1ccc(-c2ccccc2-c2nn[nH]n2)cc1` [Compound 45, 2-n-butyl-5-piperidinocarbonylmethyl-6-methyl-3-[[2'-(1H-tetrazol-5-yl)biphenyl-4-yl]methyl]-pyrimidin-4-(3H)-one] as the molecule, how does the IC50 [1] read?
Answer: The IC50 was 2.46 nM.

Question: Which IC50 [1] does the source give for `CCCCc1nc(=O)c(CC(=O)N2CCCCC2)c(C)n1Cc1ccc(-c2ccccc2-c2nn[nH]n2)cc1` [Compound 46, 2-n-butyl-5-piperidinocarbonylmethyl-6-methyl-1-[[2'-(1H-tetrazol-5-yl)biphenyl-4-yl]methyl]-pyrimidin-4-(1H)-one] here?
Answer: The IC50 was 405 nM.

Question: Which IC50 [1] does the source give for `CCCCc1nc(C)c(CC(=O)N2CCC(Cc3ccccc3)CC2)c(=O)n1Cc1ccc(-c2ccccc2-c2nn[nH]n2)cc1` [Compound 47, 2-n-butyl-5-(4'-benzylpiperidinocarbonylmethyl)-6-methyl-3-[[2'-(1H-tetrazol-5-yl)biphenyl-4-yl]methyl]-pyrimidin-4-(3H) -one] here?
Answer: The IC50 was 128 nM.

Question: With `CCCCc1nc(C)c(CC(=O)N2CCC(C)CC2)c(=O)n1Cc1ccc(-c2ccccc2-c2nn[nH]n2)cc1` [Compound 48, 2-n-butyl-5-(4'-methylpiperidinocarbonylmethyl)-6-methyl-3-[[2'-(1H-tetrazol-5-yl)biphenyl-4-yl]methyl]-pyrimidin-4-(3H)-one] as the molecule, how does the IC50 (value given in M, read-out: IC50 (concentration being required to inhibit angiotensin II induced contraction by 50%)) read?
Answer: Its IC50 is > 10000 nM.

Question: With `CCCCc1nc(C)c(CC(=O)N2CCCC(C)(C)C2)c(=O)n1Cc1ccc(-c2ccccc2-c2nn[nH]n2)cc1` [Compound 49, 2-n-butyl-5-(3',3'-dimethylpiperidinocarbonylmethyl)-6-methyl-3-[[2'-(1H-tetrazol-5-yl)biphenyl-4-yl]methyl]-pyrimidin-4-(3H)-one] as the molecule, how does the IC50 [1] read?
Answer: The IC50 was 8.96 nM.

Question: `CCCCc1nc(C)c(CC(=O)N2[C@H](C)CCC[C@@H]2C)c(=O)n1Cc1ccc(-c2ccccc2-c2nn[nH]n2)cc1` [Compound 50, 2-n-butyl-5-(cis-2',6'-dimethylpiperidinocarbonylmethyl)-6-methyl-3-[[2'-(1H-tetrazol-5-yl)biphenyl-4-yl]methyl]-pyrimidin-4-(3H)-one] was tested. Which IC50 [1] did it give?
Answer: The IC50 was 28.4 nM.

Question: With `CCCCc1nc(C)c(CC(=O)N2CCC(C(=O)OCC)CC2)c(=O)n1Cc1ccc(-c2ccccc2-c2nn[nH]n2)cc1` [Compound 51, 2-n-butyl-5-(4'-ethoxycarbonylpiperidinocarbonylmethyl)-6-methyl-3-[[2'-(1H-tetrazol-5-yl)biphenyl-4-yl]methyl]-pyrimidin-4-(3H)-one] as the molecule, how does the IC50 [1] read?
Answer: Its IC50 is 5.99 nM.

Question: `CCCCc1nc(C)c(CC(=O)N2CCCC(C(=O)OCC)C2)c(=O)n1Cc1ccc(-c2ccccc2-c2nn[nH]n2)cc1` (centres unmarked) [Compound 52, 2-n-butyl-5-(3'-ethoxycarbonylpiperidinocarbonylmethyl)-6-methyl-3-[[2'-(1H-tetrazol-5-yl)biphenyl-4-yl]methyl]-pyrimidin-4-(3H)-one] was tested. Which IC50 [1] did it give?
Answer: The IC50 was 3.56 nM.

Question: With `CCCCc1nc(C)c(CC(=O)N2CCCCC2C(=O)OCC)c(=O)n1Cc1ccc(-c2ccccc2-c2nn[nH]n2)cc1` (centres unmarked) [Compound 53, 2-n-butyl-5-(2'-ethoxycarbonylpiperidinocarbonylmethyl)-6-methyl-3-[[2'-(1H-tetrazol-5-yl)biphenyl-4-yl]methyl]-pyrimidin-4-(3H)-one] as the molecule, how does the IC50 [1] read?
Answer: The IC50 was 6.24 nM.

Question: `CCCCc1nc(C)c(CC(=O)N2CCC(C(N)=O)CC2)c(=O)n1Cc1ccc(-c2ccccc2-c2nn[nH]n2)cc1` [Compound 54, 2-n-butyl-5-(4'-aminocarbonylpiperidinocarbonylmethyl)-6-methyl-3-[[2'-(1H-tetrazol-5-yl)biphenyl-4-yl]methyl]-pyrimidin-4-(3H)-one] was tested. Which IC50 [1] did it give?
Answer: The IC50 was 2.2 nM.
